In patent US9440969B2, “Compounds and methods for kinase modulation, and indications therefor” (PLEXXIKON INC., priority 2009, dated 2016):

Tests used:
B-Raf = B-Raf (Homo sapiens, UniProt P15056); experiment: B-Raf kinase activity assay (AlphaScreen, biotin-MEK1 substrate); conditions: 100 μM ATP, 100 nM biotin-MEK1, 45 minutes at room temperature; read-out: Biochemical activity (IC50 μM) B-Raf
Procedure, shortened: (§1)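 AlphaScreen detection of phospho-MEK1 uses anti-phospho-MEK1/2 antibody and donor/acceptor beads, incubated 3 h. The kinase step runs 45 min at room temperature with 0.1 ng enzyme, 100 nM biotin-MEK1 and 100 μM ATP in 50 mM HEPES pH 7.0. IC50 is derived from eight compound concentrations.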

c-Raf-1 = c-Raf-1 (Homo sapiens, UniProt P04049); experiment: c-Raf-1 kinase activity assay (AlphaScreen, biotin-MEK1 substrate); conditions: 100 μM ATP, 100 nM biotin-MEK1, 45 minutes at room temperature; read-out: Biochemical activity (IC50 μM) c-Raf-1
Chain of c-Raf-1 (P04049 whole entry Y340D/Y341D, form open): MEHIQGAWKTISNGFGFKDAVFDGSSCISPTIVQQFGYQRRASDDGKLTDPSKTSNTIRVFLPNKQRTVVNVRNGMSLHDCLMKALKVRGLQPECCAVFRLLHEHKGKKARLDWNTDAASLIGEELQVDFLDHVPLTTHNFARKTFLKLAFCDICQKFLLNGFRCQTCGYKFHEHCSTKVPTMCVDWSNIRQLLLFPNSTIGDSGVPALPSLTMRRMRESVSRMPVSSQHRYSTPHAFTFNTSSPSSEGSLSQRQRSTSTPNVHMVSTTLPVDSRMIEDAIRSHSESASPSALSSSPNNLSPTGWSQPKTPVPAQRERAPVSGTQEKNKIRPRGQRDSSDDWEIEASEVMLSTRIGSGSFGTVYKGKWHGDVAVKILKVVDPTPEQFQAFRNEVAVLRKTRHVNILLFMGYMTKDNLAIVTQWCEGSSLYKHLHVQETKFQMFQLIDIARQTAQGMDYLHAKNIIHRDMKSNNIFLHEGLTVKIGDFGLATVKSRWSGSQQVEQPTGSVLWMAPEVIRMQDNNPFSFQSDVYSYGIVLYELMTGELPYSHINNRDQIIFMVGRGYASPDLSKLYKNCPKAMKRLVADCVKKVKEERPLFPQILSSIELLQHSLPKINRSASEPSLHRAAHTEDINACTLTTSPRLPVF
Procedure, shortened: as §1

CYP2C9 = CYP2C9 (Homo sapiens, UniProt P11712); experiment: CYP2C9 inhibition (fluorescent substrate MFC); assay type: in vitro ADME; conditions: read-out: Cyp IC50 (μM) 2C9
Chain of CYP2C9 (P11712 whole entry): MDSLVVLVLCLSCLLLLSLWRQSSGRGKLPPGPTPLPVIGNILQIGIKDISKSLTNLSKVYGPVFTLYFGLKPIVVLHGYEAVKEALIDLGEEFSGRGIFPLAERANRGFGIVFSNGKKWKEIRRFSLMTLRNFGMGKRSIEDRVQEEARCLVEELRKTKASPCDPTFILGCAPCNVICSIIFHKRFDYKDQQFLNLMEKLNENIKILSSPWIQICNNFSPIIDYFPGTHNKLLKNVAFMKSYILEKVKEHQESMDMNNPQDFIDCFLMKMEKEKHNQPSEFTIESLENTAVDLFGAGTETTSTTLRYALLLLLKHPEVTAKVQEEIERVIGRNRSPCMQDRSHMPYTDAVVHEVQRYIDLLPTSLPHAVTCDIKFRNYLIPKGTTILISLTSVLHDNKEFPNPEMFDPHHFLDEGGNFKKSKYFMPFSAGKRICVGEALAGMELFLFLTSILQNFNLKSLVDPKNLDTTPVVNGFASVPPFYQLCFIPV
Procedure, shortened: (§2)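 Human CYP enzymes with fluorogenic substrates and NADPH regeneration, compound preincubated 10 min at 37 °C in 10-point 1:1 dilution series. CYP1A2 0.5 pmol/5 μM CEC, 15 min, 409/460 nm; CYP2C9 1.0 pmol/75 μM MFC, 45 min, 409/530 nm; CYP2D6 1.5 pmol/1.5 μM AMMC, 30 min, 409/530 nm; CYP3A4 1.0 pmol/50 μM BFC, 30 min, 409/460 nm. IC50 from fluorescence vs concentration.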

B-Raf V600E = B-Raf V600E (Homo sapiens, UniProt P15056, V600E); experiment: B-Raf V600E kinase activity assay (AlphaScreen, biotin-MEK1 substrate); conditions: 100 μM ATP, 100 nM biotin-MEK1, 45 minutes at room temperature, read-out: Biochemical activity (IC50 μM) V600E
Chain of B-Raf V600E (P15056 whole entry V600E): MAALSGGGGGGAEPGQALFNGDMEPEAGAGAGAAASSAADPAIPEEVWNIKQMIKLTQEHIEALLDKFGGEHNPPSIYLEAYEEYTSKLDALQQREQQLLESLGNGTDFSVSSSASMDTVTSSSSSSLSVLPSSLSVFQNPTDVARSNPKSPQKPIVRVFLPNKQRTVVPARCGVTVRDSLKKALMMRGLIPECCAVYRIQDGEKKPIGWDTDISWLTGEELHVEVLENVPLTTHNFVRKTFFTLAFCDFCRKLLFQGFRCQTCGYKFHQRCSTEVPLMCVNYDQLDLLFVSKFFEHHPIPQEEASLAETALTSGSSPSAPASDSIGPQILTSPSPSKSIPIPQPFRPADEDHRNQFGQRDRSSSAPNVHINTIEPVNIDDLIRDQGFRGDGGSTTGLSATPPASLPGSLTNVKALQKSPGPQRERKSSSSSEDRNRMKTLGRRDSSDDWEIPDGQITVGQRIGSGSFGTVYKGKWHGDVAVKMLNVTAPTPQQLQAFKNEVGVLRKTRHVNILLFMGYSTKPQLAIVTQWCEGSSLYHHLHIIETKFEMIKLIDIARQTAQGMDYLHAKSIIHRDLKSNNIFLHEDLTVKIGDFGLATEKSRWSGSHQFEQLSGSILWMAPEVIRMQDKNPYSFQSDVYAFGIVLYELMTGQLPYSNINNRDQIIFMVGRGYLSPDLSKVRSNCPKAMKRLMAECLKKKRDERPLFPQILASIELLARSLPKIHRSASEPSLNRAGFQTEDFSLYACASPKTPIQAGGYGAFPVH
Procedure, shortened: as §1

CYP2C19 = CYP2C19 (Homo sapiens, UniProt P33261); experiment: CYP2C19 inhibition (fluorescent substrate CEC); assay type: in vitro ADME; conditions: read-out: Cyp IC50 (μM) 2C19
Chain of CYP2C19 (P33261 whole entry): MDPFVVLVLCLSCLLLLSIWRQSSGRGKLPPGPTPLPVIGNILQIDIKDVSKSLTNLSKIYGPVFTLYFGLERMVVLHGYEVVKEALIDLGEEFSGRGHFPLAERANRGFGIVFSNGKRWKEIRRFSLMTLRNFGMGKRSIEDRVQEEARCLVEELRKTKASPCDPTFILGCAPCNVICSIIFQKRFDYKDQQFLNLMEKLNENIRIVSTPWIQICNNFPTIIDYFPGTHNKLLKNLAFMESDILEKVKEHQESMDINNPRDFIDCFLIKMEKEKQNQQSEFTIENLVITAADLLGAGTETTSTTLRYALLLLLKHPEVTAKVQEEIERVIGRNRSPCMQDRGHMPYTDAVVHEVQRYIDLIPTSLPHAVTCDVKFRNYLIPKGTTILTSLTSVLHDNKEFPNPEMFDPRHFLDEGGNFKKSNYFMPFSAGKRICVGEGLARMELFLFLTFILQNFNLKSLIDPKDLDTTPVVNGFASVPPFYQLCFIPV

CYP1A2 = molecular target: T1, CYP1A2 (Homo sapiens, UniProt P05177); experiment: CYP1A2 inhibition (fluorescent substrate CEC); assay type: in vitro ADME; conditions: read-out: Cyp IC50 (μM) 1A2
T1 sequence (P05177 1-516): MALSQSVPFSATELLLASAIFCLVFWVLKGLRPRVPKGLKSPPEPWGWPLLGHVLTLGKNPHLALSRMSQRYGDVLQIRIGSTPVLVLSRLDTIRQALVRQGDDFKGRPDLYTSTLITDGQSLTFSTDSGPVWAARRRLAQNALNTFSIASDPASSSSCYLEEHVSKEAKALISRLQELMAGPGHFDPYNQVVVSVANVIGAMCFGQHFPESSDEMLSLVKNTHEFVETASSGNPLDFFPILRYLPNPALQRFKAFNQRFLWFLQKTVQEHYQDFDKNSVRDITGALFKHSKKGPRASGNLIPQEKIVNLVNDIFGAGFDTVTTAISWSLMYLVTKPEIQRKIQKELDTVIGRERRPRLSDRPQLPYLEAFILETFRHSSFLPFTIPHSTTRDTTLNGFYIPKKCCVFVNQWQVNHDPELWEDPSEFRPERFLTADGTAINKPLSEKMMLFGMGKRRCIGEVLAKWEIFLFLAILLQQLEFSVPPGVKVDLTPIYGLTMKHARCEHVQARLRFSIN
Procedure, shortened: as §2

Chain of B-Raf (P15056 whole entry): as the sequence (P15056 whole entry V600E) above, with E600V counted along it

Row | SMILES | IC50 (B-Raf) | IC50 (c-Raf-1) | IC50 (CYP2C9) | IC50 (B-Raf V600E) | IC50 (CYP2C19) | IC50 (CYP1A2)
1 | CCCS(=O)(=O)Nc1ccc(F)c(C(=O)c2c[nH]c3ncc(-c4ccc5[nH]cc(C)c5c4)cc23)c1F [P-0023, Propane-1-sulfonic acid {2,4-difluoro-3-[5-(3-methyl-1H-indol-5-yl)-1H-pyrrolo[2,3-b]pyridine-3-carbonyl]-phenyl}-amide] | < 0.1 µM | < 0.1 µM | > 10 µM | < 0.1 µM | < 5 µM | > 10 µM
2 | CCCS(=O)(=O)Nc1ccc(F)c(C(=O)c2c[nH]c3ncc(-c4ccc5cn(C)nc5c4)cc23)c1F [P-0011, Propane-1-sulfonic acid {2,4-difluoro-3-[5-(2-methyl-2H-indazol-6-yl)-1H-pyrrolo[2,3-b]pyridine-3-carbonyl]-phenyl}-amide] | < 0.1 µM | < 0.1 µM | 5 to 10 µM | < 0.1 µM | > 10 µM | < 5 µM
3 | CNC(=O)n1ncc2cc(-c3cnc4[nH]cc(C(=O)c5c(F)ccc(NS(=O)(=O)c6cc(F)ccc6F)c5F)c4c3)ccc21 [P-0003, 5-{3-[3-(2,5-Difluoro-benzenesulfonylamino)-2,6-difluoro-benzoyl]-1H-pyrrolo[2,3-b]pyridin-5-yl}-indazole-1-carboxylic acid methylamide] | < 0.1 µM | < 0.1 µM | < 5 µM | < 0.1 µM | < 5 µM | > 10 µM
4 | CCCS(=O)(=O)Nc1ccc(F)c(C(=O)c2c[nH]c3ncc(-c4ccc5c(cnn5C(C)=O)c4)cc23)c1F [P-0007, propane-1-sulfonic acid {3-[5-(1-acetyl-1H-indazol-5-yl)-1H-pyrrolo[2,3-b]pyridine-3-carbonyl]-2,4-difluoro-phenyl}-amide] | < 0.1 µM | ~0.1 µM | < 5 µM | < 0.1 µM | < 5 µM | < 5 µM
5 | CCCS(=O)(=O)Nc1ccc(F)c(C(=O)c2c[nH]c3ncc(-c4ccc5nn(C)cc5c4)cc23)c1F [P-0010, Propane-1-sulfonic acid {2,4-difluoro-3-[5-(2-methyl-2H-indazol-5-yl)-1H-pyrrolo[2,3-b]pyridine-3-carbonyl]-phenyl}-amide] | < 0.1 µM | < 0.1 µM | > 10 µM | < 0.1 µM | > 10 µM | > 10 µM
